Source: patent US20200370087A1, “METHOD FOR DETERMINING MICROBIAL SUSCEPTIBILITY TO ANTIBIOTIC AGENTS” (Ascilion AB, priority 2017, published 2020)
≈ marks a conversion by molar mass, not a printed value.

Columns and labels:
[1] = system: Enterococcus faecalis (ATCC 29212); test: Glucose consumption susceptibility test, blood culture diluted in MHB with glucose (Example 1); format: cell-based; parameters: glucose concentration, t = 0 / glucose concentration, t = 60 / glucose concentration, t = 120 / glucose concentration, t = 180 / glucose concentration, t = 240 / dC/dT (rate of change in glucose concentration): unit not given here; details: E. faecalis; for glucose concentration, t = 0: 0 minutes; for glucose concentration, t = 60: 60 minutes; for glucose concentration, t = 120: 120 minutes; for glucose concentration, t = 180: 180 minutes; for glucose concentration, t = 240: 240 minutes
Method: (§1) Strains of Escherichia coli (ATCC 25922), Enterococcus faecalis (ATCC 29212) and Staphylococcus aureus (ATCC 29213) were inoculated in blood culture bottles (SVA, Uppsala, Sweden) and cultivated according to the manufacturer's instructions until positive.
(§2) Medium from each blood culture bottle was diluted 1:100 with cation adjusted Mueller-Hinton broth (SVA, Uppsala, Sweden) supplemented with glucose to a concentration of 1.0 mg/mL.
(§3) Glucose concentrations were measured at 0, 60, 120, 180, and 240 minutes using a WaveSense Jazz glucometer (AgaMatrix, Inc., Salem, N.H., USA) with accompanying test strips.
(§4) Susceptibility scores corresponding to MIC values were calculated as described above. A 80% threshold was applied, i.e. the lowest concentration of antibiotic that entailed a rate of change in glucose concentration that was equal to or less than 80% of the reference was selected as the Minimal Inhibitory Concentration. The rate of change was calculated between the measurements at 60 and 180 minutes.

[2] = system: Staphylococcus aureus (ATCC 29213); test: as above; format: cell-based; parameters: glucose concentration, t = 0 / glucose concentration, t = 60 / glucose concentration, t = 120 / glucose concentration, t = 180 / glucose concentration, t = 240 / dC/dT (rate of change in glucose concentration): unit not given here; details: for F = the rate of change in glucose concentration in relation to the reference / dC/dT (rate of change in glucose concentration) / glucose concentration, t = 0 / glucose concentration, t = 60 / glucose concentration, t = 120 / glucose concentration, t = 180 / glucose concentration, t = 240: S. aureus; for glucose concentration, t = 0: 0 minutes; for glucose concentration, t = 60: 60 minutes; for glucose concentration, t = 120: 120 minutes; for glucose concentration, t = 180: 180 minutes; for glucose concentration, t = 240: 240 minutes
Method: as §1, §2, §3, §4

[3] = system: Staphylococcus aureus ATCC 29213; details: S.aureus, cited from earlier work

CO[C@@]1(NC(=O)Cc2cccs2)C(=O)N2C(C(=O)O)=C(COC(N)=O)CS[C@@H]21 [Cefoxitin, cefoxitin]
F = the rate of change in glucose concentration in relation to the reference ([1]; antibiotic 0.25 μg/mL): 93% | dC/dT (rate of change in glucose concentration) ([1]; antibiotic 0.25 μg/mL): 34 | glucose concentration, t = 0 ([1]; antibiotic 0.25 μg/mL): 151 | glucose concentration, t = 60 ([1]; antibiotic 0.25 μg/mL): 155 | glucose concentration, t = 120 ([1]; antibiotic 0.25 μg/mL): 138 | glucose concentration, t = 180 ([1]; antibiotic 0.25 μg/mL): 88 | glucose concentration, t = 240 ([1]; antibiotic 0.25 μg/mL): 34 | F = the rate of change in glucose concentration in relation to the reference ([1]; antibiotic 0.5 μg/mL): 88% | dC/dT (rate of change in glucose concentration) ([1]; antibiotic 0.5 μg/mL): 32 | glucose concentration, t = 0 ([1]; antibiotic 0.5 μg/mL): 145 | glucose concentration, t = 60 ([1]; antibiotic 0.5 μg/mL): 150 | glucose concentration, t = 120 ([1]; antibiotic 0.5 μg/mL): 144 | glucose concentration, t = 180 ([1]; antibiotic 0.5 μg/mL): 87 | glucose concentration, t = 240 ([1]; antibiotic 0.5 μg/mL): 32 | F = the rate of change in glucose concentration in relation to the reference ([1]; antibiotic 1 μg/mL): 85% | dC/dT (rate of change in glucose concentration) ([1]; antibiotic 1 μg/mL): 31 | glucose concentration, t = 0 ([1]; antibiotic 1 μg/mL): 148 | glucose concentration, t = 60 ([1]; antibiotic 1 μg/mL): 159 | glucose concentration, t = 120 ([1]; antibiotic 1 μg/mL): 142 | glucose concentration, t = 180 ([1]; antibiotic 1 μg/mL): 98 | glucose concentration, t = 240 ([1]; antibiotic 1 μg/mL): 31 | F = the rate of change in glucose concentration in relation to the reference ([1]; antibiotic 2 μg/mL): 99% | dC/dT (rate of change in glucose concentration) ([1]; antibiotic 2 μg/mL): 36 | glucose concentration, t = 0 ([1]; antibiotic 2 μg/mL): 149 | glucose concentration, t = 60 ([1]; antibiotic 2 μg/mL): 169 | glucose concentration, t = 120 ([1]; antibiotic 2 μg/mL): 145 | glucose concentration, t = 180 ([1]; antibiotic 2 μg/mL): 98 | glucose concentration, t = 240 ([1]; antibiotic 2 μg/mL): 36 | F = the rate of change in glucose concentration in relation to the reference ([1]; antibiotic 4 μg/mL): 74% | dC/dT (rate of change in glucose concentration) ([1]; antibiotic 4 μg/mL): 27 | glucose concentration, t = 0 ([1]; antibiotic 4 μg/mL): 150 | glucose concentration, t = 60 ([1]; antibiotic 4 μg/mL): 159 | glucose concentration, t = 120 ([1]; antibiotic 4 μg/mL): 146 | glucose concentration, t = 180 ([1]; antibiotic 4 μg/mL): 106 | glucose concentration, t = 240 ([1]; antibiotic 4 μg/mL): 27 | F = the rate of change in glucose concentration in relation to the reference ([1]; antibiotic 8 μg/mL): 63% | dC/dT (rate of change in glucose concentration) ([1]; antibiotic 8 μg/mL): 23 | glucose concentration, t = 0 ([1]; antibiotic 8 μg/mL): 144 | glucose concentration, t = 60 ([1]; antibiotic 8 μg/mL): 149 | glucose concentration, t = 120 ([1]; antibiotic 8 μg/mL): 147 | glucose concentration, t = 180 ([1]; antibiotic 8 μg/mL): 104 | glucose concentration, t = 240 ([1]; antibiotic 8 μg/mL): 23 | F = the rate of change in glucose concentration in relation to the reference ([1]; antibiotic 16 μg/mL): 68% | dC/dT (rate of change in glucose concentration) ([1]; antibiotic 16 μg/mL): 25 | glucose concentration, t = 0 ([1]; antibiotic 16 μg/mL): 148 | glucose concentration, t = 60 ([1]; antibiotic 16 μg/mL): 154 | glucose concentration, t = 120 ([1]; antibiotic 16 μg/mL): 148 | glucose concentration, t = 180 ([1]; antibiotic 16 μg/mL): 105 | glucose concentration, t = 240 ([1]; antibiotic 16 μg/mL): 25 | F = the rate of change in glucose concentration in relation to the reference ([1]; antibiotic 32 μg/mL): 74% | dC/dT (rate of change in glucose concentration) ([1]; antibiotic 32 μg/mL): 27 | glucose concentration, t = 0 ([1]; antibiotic 32 μg/mL): 148 | glucose concentration, t = 60 ([1]; antibiotic 32 μg/mL): 155 | glucose concentration, t = 120 ([1]; antibiotic 32 μg/mL): 140 | glucose concentration, t = 180 ([1]; antibiotic 32 μg/mL): 102 | glucose concentration, t = 240 ([1]; antibiotic 32 μg/mL): 27 | MIC ([1]; Enterococcus faecalis, ATCC29212, 80% threshold, disregarded as rate of decrease was higher at 32 μg/mL, read-out: MIC value initially obtained (disregarded)): 4 µg/mL (≈ 9.36 µM) | F = the rate of change in glucose concentration in relation to the reference ([2]; antibiotic 0.25 μg/mL): 91% | dC/dT (rate of change in glucose concentration) ([2]; antibiotic 0.25 μg/mL): 31 | glucose concentration, t = 0 ([2]; antibiotic 0.25 μg/mL): 143 | glucose concentration, t = 60 ([2]; antibiotic 0.25 μg/mL): 152 | glucose concentration, t = 120 ([2]; antibiotic 0.25 μg/mL): 132 | glucose concentration, t = 180 ([2]; antibiotic 0.25 μg/mL): 91 | glucose concentration, t = 240 ([2]; antibiotic 0.25 μg/mL): 33 | F = the rate of change in glucose concentration in relation to the reference ([2]; antibiotic 0.5 μg/mL): 96% | dC/dT (rate of change in glucose concentration) ([2]; antibiotic 0.5 μg/mL): 32 | glucose concentration, t = 0 ([2]; antibiotic 0.5 μg/mL): 144 | glucose concentration, t = 60 ([2]; antibiotic 0.5 μg/mL): 155 | glucose concentration, t = 120 ([2]; antibiotic 0.5 μg/mL): 130 | glucose concentration, t = 180 ([2]; antibiotic 0.5 μg/mL): 91 | glucose concentration, t = 240 ([2]; antibiotic 0.5 μg/mL): 32 | F = the rate of change in glucose concentration in relation to the reference ([2]; antibiotic 1 μg/mL): 82% | dC/dT (rate of change in glucose concentration) ([2]; antibiotic 1 μg/mL): 28 | glucose concentration, t = 0 ([2]; antibiotic 1 μg/mL): 147 | glucose concentration, t = 60 ([2]; antibiotic 1 μg/mL): 155 | glucose concentration, t = 120 ([2]; antibiotic 1 μg/mL): 133 | glucose concentration, t = 180 ([2]; antibiotic 1 μg/mL): 100 | glucose concentration, t = 240 ([2]; antibiotic 1 μg/mL): 40 | F = the rate of change in glucose concentration in relation to the reference ([2]; antibiotic 2 μg/mL): 72% | dC/dT (rate of change in glucose concentration) ([2]; antibiotic 2 μg/mL): 24 | glucose concentration, t = 0 ([2]; antibiotic 2 μg/mL): 141 | glucose concentration, t = 60 ([2]; antibiotic 2 μg/mL): 146 | glucose concentration, t = 120 ([2]; antibiotic 2 μg/mL): 143 | glucose concentration, t = 180 ([2]; antibiotic 2 μg/mL): 98 | glucose concentration, t = 240 ([2]; antibiotic 2 μg/mL): 61 | F = the rate of change in glucose concentration in relation to the reference ([2]; antibiotic 4 μg/mL): 16% | dC/dT (rate of change in glucose concentration) ([2]; antibiotic 4 μg/mL): 6 | glucose concentration, t = 0 ([2]; antibiotic 4 μg/mL): 142 | glucose concentration, t = 60 ([2]; antibiotic 4 μg/mL): 150 | glucose concentration, t = 120 ([2]; antibiotic 4 μg/mL): 143 | glucose concentration, t = 180 ([2]; antibiotic 4 μg/mL): 139 | glucose concentration, t = 240 ([2]; antibiotic 4 μg/mL): 139 | F = the rate of change in glucose concentration in relation to the reference ([2]; antibiotic 8 μg/mL): 24% | dC/dT (rate of change in glucose concentration) ([2]; antibiotic 8 μg/mL): 8 | glucose concentration, t = 0 ([2]; antibiotic 8 μg/mL): 136 | glucose concentration, t = 60 ([2]; antibiotic 8 μg/mL): 157 | glucose concentration, t = 120 ([2]; antibiotic 8 μg/mL): 160 | glucose concentration, t = 180 ([2]; antibiotic 8 μg/mL): 141 | glucose concentration, t = 240 ([2]; antibiotic 8 μg/mL): 149 | F = the rate of change in glucose concentration in relation to the reference ([2]; antibiotic 16 μg/mL): 22% | dC/dT (rate of change in glucose concentration) ([2]; antibiotic 16 μg/mL): 8 | glucose concentration, t = 0 ([2]; antibiotic 16 μg/mL): 140 | glucose concentration, t = 60 ([2]; antibiotic 16 μg/mL): 157 | glucose concentration, t = 120 ([2]; antibiotic 16 μg/mL): 152 | glucose concentration, t = 180 ([2]; antibiotic 16 μg/mL): 142 | glucose concentration, t = 240 ([2]; antibiotic 16 μg/mL): 142 | F = the rate of change in glucose concentration in relation to the reference ([2]; antibiotic 32 μg/mL): 27% | dC/dT (rate of change in glucose concentration) ([2]; antibiotic 32 μg/mL): 9 | glucose concentration, t = 0 ([2]; antibiotic 32 μg/mL): 145 | glucose concentration, t = 60 ([2]; antibiotic 32 μg/mL): 154 | glucose concentration, t = 120 ([2]; antibiotic 32 μg/mL): 145 | glucose concentration, t = 180 ([2]; antibiotic 32 μg/mL): 136 | glucose concentration, t = 240 ([2]; antibiotic 32 μg/mL): 139 | MIC ([2]; Staphylococcus aureus, ATCC29213, S.aureus, 80% threshold of reference rate of change, 60 to 180 minutes, read-out: MIC, Measured): 2 µg/mL (≈ 4.68 µM) | MIC, EUCAST, range in parentheses ([3]; range obtained by EUCAST from ISO 20776-1: 2006): (1-4) ug/mL | MIC, EUCAST ([3]; reference value, Mueller-Hinton agar, incubation 18±2 h): 2 µg/mL (≈ 4.68 µM)
